Measurements from patent publication US9511059B2, “Antiviral compounds” (priority 2013, dated 2016).

How the values were obtained:
Test in all cases: microbe, parasite or virus in culture
[1] = test system: Pseudotyped HCV GT1a particles (HCVpp); format: cell-based, Hepatitis C virus GT1a H77 strain; conditions: Hepatitis C virus, 72 h, read-out: HCVpp GT-1a (EC50, μM)
[2] = test system: pseudotyped VSV G particles (VSVpp); format: cell-based; conditions: Vesicular stomatitis virus, 72 h, read-out: VSVpp (EC50, μM)
[3] = test system: Pseudotyped HCV GT1b particles (HCVpp); format: cell-based, Hepatitis C virus GT1b Con1 strain; conditions: Hepatitis C virus, 72 h, read-out: HCVpp GT-1b (EC50, μM)

Row | SMILES | EC50 [1] [µM] | EC50 [2] [µM] | EC50 [3] [µM]
1 | Nc1n[nH]c(Nc2cc(F)c(Sc3ccccc3)c(C(F)(F)F)c2)n1 [Compound 1, N^5-(3-Fluoro-4-phenylsulfanyl-5-trifluoromethylphenyl)-1H-[1,2,4]-triazole-3,5-diamine] | 0.31 | 13.2 | 
2 | Nc1nc(Nc2ccc(Nc3ccccc3)c(Cl)c2)n[nH]1 [Compound 2, N*3*-(3-Chloro-4-phenylamino-phenyl)-1H-[1,2,4]triazole-3,5-diamine] | 2.44 | 86 | 0.393
3 | Nc1nc(Nc2ccc(Oc3ccccc3)c(Cl)c2)n[nH]1 [Compound 3, N*3*-(3-Chloro-4-phenoxy-phenyl)-1H-[1,2,4]triazole-3,5-diamine] | 2.77 | 35.5 | 0.329
4 | Nc1nc(Nc2cc(Cl)c(Sc3ccccc3)c(Cl)c2)n[nH]1 [Compound 4, N*3*-(3,5-Dichloro-4-phenylsulfanyl-phenyl)-1H-[1,2,4]triazole-3,5-diamine] | 0.076 | 3.3 | 
5 | Nc1nc(Nc2cc(Cl)c([S+]([O-])c3ccccc3)c(Cl)c2)n[nH]1 (stereo not shown) [Compound 5, N*3*-(4-Benzenesulfinyl-3,5-dichloro-phenyl)-1H-[1,2,4]triazole-3,5-diamine] | 0.293 | 25.3 | 
6 | Nc1nc(Nc2cc(Cl)c(S(=O)(=O)c3ccccc3)c(Cl)c2)n[nH]1 [Compound 6, N*3*-(4-Benzenesulfonyl-3,5-dichloro-phenyl)-1H-[1,2,4]triazole-3,5-diamine] | 0.139 | 34 | 
7 | Nc1nc(Nc2cc(Cl)c(Sc3ccc(C(F)(F)F)cc3)c(Cl)c2)n[nH]1 [Compound 7, N3-(3,5-dichloro-4-(4-(trifluoromethyl)phenylthio)phenyl)-1H-1,2,4-triazole-3,5-diamine] |  | 100 | 0.009
8 | Nc1nc(Nc2cc(Cl)c([S+]([O-])c3ccc(C(F)(F)F)cc3)c(Cl)c2)n[nH]1 (stereo not shown) [Compound 8, N3-(3,5-dichloro-4-(4-(trifluoromethyl)phenylsulfinyl)phenyl)-1H-1,2,4-triazole-3,5-diamine] | 0.114 | 10 | 0.079
9 | Nc1nc(Nc2cc(Cl)c(Sc3cccc(C(F)(F)F)c3)c(Cl)c2)n[nH]1 [Compound 9, N3-(3,5-dichloro-4-(3-(trifluoromethyl)phenylthio)phenyl)-1H-1,2,4-triazole-3,5-diamine] | 0.15 | 3 | 
10 | Nc1nc(Nc2cc(Cl)c(Sc3ccccc3C(F)(F)F)c(Cl)c2)n[nH]1 [Compound 10, N*3*-[3,5-Dichloro-4-(2-trifluoromethyl-phenylsulfanyl)-phenyl]-1H-[1,2,4]triazole-3,5-diamine] | 0.263 | 7.7 | 
11 | Nc1nc(Nc2cc(Cl)c([S+]([O-])c3cccc(C(F)(F)F)c3)c(Cl)c2)n[nH]1 (stereo not shown) [Compound 11, N^3-[3,5-Dichloro-4-(3-trifluoromethyl-benzenesulfinyl)-phenyl]-1H-[1,2,4]triazole-3,5-diamine] | 0.61 | 10 | 
12 | N#Cc1ccc(Sc2c(Cl)cc(Nc3n[nH]c(N)n3)cc2Cl)cc1 [Compound 12, 4-[4-(5-Amino-1H-[1,2,4]triazol-3-ylamino)-2,6-dichloro-phenylsulfanyl]-benzonitrile] | 0.077 | 3.4 | 
13 | N#Cc1ccc([S+]([O-])c2c(Cl)cc(Nc3n[nH]c(N)n3)cc2Cl)cc1 (stereo not shown) [Compound 13, 4-[4-(5-Amino-1H-[1,2,4]triazol-3-ylamino)-2,6-dichloro-benzenesulfinyl]-benzonitrile] | 0.674 | 10 | 
14 | N#Cc1ccc(S(=O)(=O)c2c(Cl)cc(Nc3n[nH]c(N)n3)cc2Cl)cc1 [Compound 14, 4-[4-(5-Amino-1H-[1,2,4]triazol-3-ylamino)-2,6-dichloro-benzenesulfonyl]-benzonitrile] | 0.366 | 10 | 
15 | COC(=O)c1ccc(Sc2c(Cl)cc(Nc3n[nH]c(N)n3)cc2C(F)(F)F)cc1 [Compound 15, 4-[4-(5-Amino-1H-[1,2,4]triazol-3-ylamino)-2-chloro-6-trifluoromethyl-phenylsulfanyl]-benzoic acid methyl ester] | 0.133 | 49.8 | 
16 | COc1ccc(Sc2c(Cl)cc(Nc3n[nH]c(N)n3)cc2Cl)cc1 [Compound 16, N*3*-[3,5-Dichloro-4-(4-methoxy-phenylsulfanyl)-phenyl]-1H-[1,2,4]triazole-3,5-diamine] | 1.02 | 40.2 | 
17 | COc1ccc(Sc2c(Cl)cc(Nc3n[nH]c(N)n3)cc2C(F)(F)F)cc1 [Compound 17, N*3*-[3-Chloro-4-(4-methoxy-phenylsulfanyl)-5-trifluoromethyl-phenyl]-1H-[1,2,4]triazole-3,5-diamine] | 1.04 | 34.9 | 
18 | COc1ccc(S(=O)(=O)c2c(Cl)cc(Nc3n[nH]c(N)n3)cc2Cl)cc1 [Compound 18, N*3*-[3,5-Dichloro-4-(4-methoxy-benzenesulfonyl)-phenyl]-1H-[1,2,4]triazole-3,5-diamine] | 0.126 | 0.1 | 
19 | CS(=O)(=O)c1ccc(Oc2c(Cl)cc(Nc3n[nH]c(N)n3)cc2Cl)cc1 [Compound 19, N*3*-[3,5-Dichloro-4-(4-methanesulfonyl-phenoxy)-phenyl]-1H-[1,2,4]triazole-3,5-diamine] | 0.019 | 20.2 | 0.008
20 | CS(=O)(=O)c1ccc(Oc2c(Cl)cc(Nc3n[nH]c(N)n3)cc2C(F)(F)F)cc1 [Compound 20, N*3*-[3-Chloro-4-(4-methanesulfonyl-phenoxy)-5-trifluoromethyl-phenyl]-1H-[1,2,4]triazole-3,5-diamine] | 0.232 | 10 | 
21 | Nc1nc(Nc2cc(Cl)cc(OCc3ccccc3)c2)n[nH]1 [Compound 21, N*5*-(3-Benzyloxy-5-chloro-phenyl)-1H-[1,2,4]triazole-3,5-diamine] | 1.67 | 39.2 | 
22 | Nc1nc(Nc2ccc(Sc3ccccc3)c(Cl)c2)n[nH]1 [Compound 22, N3-(3-chloro-4-(phenylthio)phenyl)-1H-1,2,4-triazole-3,5-diamine] | 1.65 | 14.3 | 0.229
23 | Nc1nc(Nc2ccc(S(=O)(=O)c3ccccc3)c(Cl)c2)n[nH]1 [Compound 23, N3-(3-chloro-4-(phenylsulfonyl)phenyl)-1H-1,2,4-triazole-3,5-diamine] | 4.62 | 40.1 | 0.517
24 | CN(c1ccc(Sc2ccccc2)c(Cl)c1)c1n[nH]c(N)n1 [Compound 24, N3-(3-chloro-4-(phenylthio)phenyl)-N3-methyl-1H-1,2,4-triazole-3,5-diamine] |  | 100 | 42.1
25 | Nc1nc(Nc2cc(Cl)cc(Oc3ccccc3)c2)n[nH]1 [Compound 25, N*3*-(3-Chloro-5-phenoxy-phenyl)-1H-[1,2,4]triazole-3,5-diamine] |  | 100 | 1.9
26 | Nc1nc(Nc2cc(Cl)c(Oc3ccccn3)c(Cl)c2)n[nH]1 [Compound 26, N*3*-[3,5-Dichloro-4-(pyridin-2-yloxy)-phenyl]-1H-[1,2,4]triazole-3,5-diamine] | 1.88 | 43.5 | 
